Results on 1 compound are retold here after patent publication EP0357495A2, “3'Azido-3'-deoxythymidine (AZT) derivatives active against the AIDS virus” (IRE-CELLTARG S.A., priority 1988, dated 1990).

For assay [1], the system named is virus HIV-1 (souche HTLV-IIIB). The experiment in a line: anti-HIV activity in HIV-infected MT4 cells (MTT method). Type of assay: cell-based. As to the method:
Les produits (AZT, AZT-5′ hémisuccinyl et AZT 5′-leucyl) à différentes concentrations ont été mis en présence de cellules MT4 (4 X 10⁴ cellules par puits de microtray) infectées ou non avec 100 CCID₅₀ de virus HIV-1 (souche HTLV-IIIB). La CCID₅₀ représente la quantité de virus à rajouter pour obtenir une infection de 50 % des cellules (dose infectieuse de cellules en culture 50).
Après cinq jours d'incubation à 37°C, le nombre de cellules vivantes a été déterminé par la méthode au MTT, basée sur la réduction par les cellules vivantes du 3′-(4, 5-diméthylthiazol-2-yl)-2,5-diphényltétrazoliumbromide, jaune, en formazan, bleu. L'activité antivirale et la cytotoxicité sont exprimées sous forme de ED₅₀ et de CD₅₀. La CD₅₀ représente la dose qui tue 50 % des cellules non infectées et la ED₅₀ représente la dose qui protège 50 % des cellules de l'infection virale.
La même expérience que celle décrite ci-avant (exemple 9.1)) a été réalisée, mais en présence de thymidine 250 µM et de 2′déoxycytidine 500 µM. En effet l'AZT entre en compétition avec la thymidine au niveau des enzymes de phosphorylation qui vont le transformer en AZT triphosphate (AZT TP) qui est la forme active du produit. Un excès de thymidine réduit donc très fortement l'activité de l'AZT, ce qui se traduit par une ED₅₀ plus élevée. Par conséquent, si le dérivé de l'AZT doit son activité à la libération d'AZT qui à son tour est phosphorylé en AZT TP, un excès de thymidine aura également pour effet d'élever la ED₅₀ du dérivé. La thymidine étant cytotoxique à la concentration utilisée, il est nécessaire de rajouter de la 2′déoxycytidine pour empêcher cette toxicité.
Les protocoles expérimentaux sont ceux décrits à l'exemple 9 3.1) et 9 3).
In general terms: Tetrazolium assays rely on reduction of a dye to a coloured formazan, in cell work by metabolically active cells.

Assay [2] relates to virus HIV-1 (souche HTLV-IIIB). The experiment in a line: viral antigen assay in HIV-infected human peripheral blood lymphocytes. Type of assay: cell-based. As to conditions: day 14 of culture. An excerpt:
Les lymphocytes ont été extraits d'un concentré plaquettaire par séparation sur gradient de Ficoll et élimination des adhérentes. Après 3 jours de stimulation par la phytohémaglutinine, ils ont été transférés dans un milieu additionné d'interleukine-2 (IL-2) est infectés par le virus HIV-1 (souche HTLV-IIIB). L'AZT et son dérivé 5′ hémisuccinate à différentes concentrations ont été rajoutés aux cellules au moment de l'infection.
Trois jours après l'infection, le milieu a été remplacé par du milieu frais additionné d'IL-2, contenant les produits aux concentrations désirées pour la moitié des cellules, et ne contenant plus de produit pour l'autre moitié. Ensuite, le milieu des cellules a été remplacé à moitié par du milieu frais additionné d'IL-2, contenant ou non les produits aux concentrations désirées, tous les 3 à 4 jours.
La multiplication du virus a été suivie par dosage des antigènes viraux dans les surnageants de culture (Innotest HIV-Organon Teknika).

The mark [3] stands for this setting: tableau 4, MT-4, with thymidine (250µM) + 2′déoxy-cytidine (500 µM).
Setting [4] is: tableau 4, MT-4, without thymidine / 2′déoxycytidine.

Turning to `Cc1cn([C@H]2C[C@H](N=[N+]=[N-])[C@@H](COC(=O)CCC(=O)O)O2)c(=O)[nH]c1=O` [AZT 5′hémisuccinyl, 5′-hémisuccinyl-3′-azido-3′-déoxythymidine], the “activité (compared with AZT, in words)” value in assay [1] (comparison with AZT) is on record as “comparable à celle de l'AZT”. The “indice de sélectivité” value in assay [1] (de l'ordre de) is ~28 000. The ED₅₀ entry in assay [1] (tableau 2, MT4 cells infected with 100 CCID₅₀ HIV-1, 5 days at 37°C, dose that protects 50 % of cells) is “.0069 µM”; in assay [1] (setting [3]), 6,8399 µM; in assay [1] (setting [4]) it was 0,0523 µM; in assay [2] (durée d'administration 3 jours), 0.078 µM; in assay [2] (durée d'administration 14 jours), 0.057 µM. Further, the SI in assay [1] (tableau 2, indice de sélectivité = CD₅₀ sur ED₅₀, MT4 cells) was 28543; in assay [1] (setting [3]), 53; in assay [1] (setting [4]) it was 5633. Also, in assay [1] (tableau 2, ratio within the same experiment, MT4 cells), the “SI dérivé/SI AZT” value is 4.7.
